Reference: US20150307841A1, “Composition for Promoting Differentiation and Proliferation of Neural Stem Cell and Neural Precursor Cell” (priority 2014, published 2015)

Columns and labels:
[1] = test system: hippocampal neural precursor cells (NPCs); experiment: Immunoblotting assay of VGluT1, ChAT, GAD65/67 in cultured hippocampal neural precursor cells; type: cell-based, rat
Excerpt: (§1) Pregnant Sprague-Dawley rats purchased from Orient Animal Breeding Center (a branch of Charles River Laboratories, Gyeonggi-do, Korea) were sacrificed by exposing to CO2 inhalation. Hippocampal neural precursor cells (NPCs) were isolated from the brain of the E16 rat embryo according to the method of Shin M H et al. (Exp Mol Med, 2002) with slight modifications.
(§2) Briefly, hippocampi were aseptically dissected from the embryonic forebrain, mechanically dissociated in Ca^2+/Mg^2+-free Hank's balanced salt solution (HBSS) and then plated at 7×10^5 cells/cm^2 on 60-mm dishes pre-coated with 15 μg/mL poly-L-ornithine and 1 μg/mL fibronectin. The neural precursor cells were cultured in serum-free N2 media supplemented with 10 ng/mL bFGF in 5% CO2 for 3 days and then detached using 0.05% trypsin-ethylenediaminetetraacetic acid (EDTA). The neural precursor cells were plated on 12-mm cover glasses (Bellco Co., Vineland, N.J., USA) and cultured one more day in N2 media supplemented with 10 ng/mL bFGF in 5% CO2 (primary culturing).
Following the primary culturing in (1), the cultured hippocampal neural precursor cells were lysed in 80 μL of a cold RIPA buffer containing a protease inhibitor cocktail for immunoblotting assay of VGluT1, ChAT and GAD65/67. After centrifugation for 10 minutes at 13,000×g, the supernatants were divided into Eppendorf tubes and stored at −80° C.
Protein quantification assay was performed using a Bradford protein assay kit (Bio-Rad, Hercules, Calif., USA). […]
The number of the VGluT1- and GAD-positive cells in the brain slice samples 1 week and 4 weeks after the administration of soyasaponin I was presented per microscopic field (×400-VGluT1, ×800-GAD67) and the number of the ChAT-positive cells was presented per each hippocampal region (10-12 confocal laser microscopic fields). […] Western blotted membranes were analyzed using the multi-gauge, bio-imaging program on LAS-4000 Mini (Fujifilm Life Science, Stamford, Conn., USA). […]

[2] = test system: hippocampal neural precursor cells (NPCs); experiment: Ki67 immunostaining of cultured embryonic neural precursor cells (proliferation); type: cell-based, rat
Excerpt: as §1, §2
Following the primary culturing in (1), immunohistochemical analysis was conducted using Ki67 antibodies in order to confirm the effect of soyasaponin I on proliferation of the embryonic neural precursor cells. […]

[3] = test system: BrdU-positive neural precursor cells in the hippocampal region; experiment: Immunohistochemical analysis of BrdU in hippocampus after soyasaponin I administration (Experimental Example 1); type: in vivo, rat
Procedure: After conducting the three behavioral tests, the rats were sacrificed for immunohistochemical analysis.
The brain slices of the test animals of the normal group (Sham), the IBO group and the Soya-I group were immunostained by the method of Heo H et al. (J Ethnopharmacol, 2009) with modifications. The rats were transcardially perfused with 4% PFA in PBS. Following fixation by immersing in 4% PFA in PBS for 3 hours, the brain tissues were cryoprotected in 30% sucrose in PBS, frozen with an optimal cutting temperature (OCT) compound and stored at −80° C.
The brain tissue blocks were cryosectioned through the coronal plane at a thickness of 35 μm. The brain tissue sections were stored at 4° C. in a storing solution (30% glycerol and 30% ethylene glycol in PBS). The stored brain slices were permeabilized in 0.5% Triton X-I00 for 20 minutes and incubated at 37° C. for 30 minutes in 2 N HCl. Then, they were blocked in 15% normal serum and 3% bovine serum albumin (BSA, bio-WORLD, Dublin, Ohio, USA) and 0.1% Triton X-100 for 2 hours under a free-floating condition.
The sections were incubated for 16 hours at 4° C. with primary antibodies against bromodeoxyuridine (BrdU) (Sigma). […]
In the immunohistochemical analysis, the number of the cells immnunostained against each antibody was counted from 5 or 6 hippocampal coronal sections. […]

Compound: C[C@@H]1O[C@@H](O[C@H]2[C@H](O[C@H]3[C@H](O[C@H]4CC[C@@]5(C)[C@@H](CC[C@]6(C)[C@@H]5CC=C5[C@@H]7CC(C)(C)C[C@@H](O)[C@]7(C)CC[C@]56C)[C@@]4(C)CO)O[C@H](C(=O)O)[C@@H](O)[C@@H]3O)O[C@H](CO)[C@H](O)[C@@H]2O)[C@H](O)[C@H](O)[C@H]1O [soyasaponin I]
- Expression level of ChAT protein compared to the normal group ([1]; 0.5, 1, 2 μM test groups, normalized to β-actin and vehicle): 1.9 fold
- Expression of GAD65/67 protein ([1]; treatment for 6 days): increased relatively little
- Expression of VGluT1 protein ([1]; treatment for 6 days): increased relatively little
- Increase in the number of proliferating (Ki67) cells compared with the normal group (Vehicle) ([2]; 2 μM soyasaponin I): 2.5 fold
- Proliferation of the neural precursor cells (Ki67), concentration dependence ([2]; 0.5, 1, 2 μM): increased rapidly
- Dose with greatest rise in number of BrdU-positive cells ([3]; 10 mg/kg oral): largest increase
- Number of BrdU-positive cells in the dentate gyrus of the hippocampus versus IBO ([3]; all doses (5, 10, 20 mg/kg) oral): increased significantly
